Article PMC7795171, “In Silico and In Vitro Analysis of Major Cannabis-Derived Compounds as Fatty Acid Amide Hydrolase Inhibitors” (Molecules, 2020)
Like-named read-outs stand apart in the source and are kept apart here.

Legend:
[1] = molecular target: T1, rFAAH (Rattus norvegicus, UniProt P97612); test: FAAH activity assay, rat brain membranes, [14C]AEA hydrolysis; type: biochemical; settings: for % In Vitro Inhibition (At 100 µm): rFAAH, compound at 100 µm
T1 construct: from tissue; host or cells: rat brain membranes
T1 sequence (P97612 1-579): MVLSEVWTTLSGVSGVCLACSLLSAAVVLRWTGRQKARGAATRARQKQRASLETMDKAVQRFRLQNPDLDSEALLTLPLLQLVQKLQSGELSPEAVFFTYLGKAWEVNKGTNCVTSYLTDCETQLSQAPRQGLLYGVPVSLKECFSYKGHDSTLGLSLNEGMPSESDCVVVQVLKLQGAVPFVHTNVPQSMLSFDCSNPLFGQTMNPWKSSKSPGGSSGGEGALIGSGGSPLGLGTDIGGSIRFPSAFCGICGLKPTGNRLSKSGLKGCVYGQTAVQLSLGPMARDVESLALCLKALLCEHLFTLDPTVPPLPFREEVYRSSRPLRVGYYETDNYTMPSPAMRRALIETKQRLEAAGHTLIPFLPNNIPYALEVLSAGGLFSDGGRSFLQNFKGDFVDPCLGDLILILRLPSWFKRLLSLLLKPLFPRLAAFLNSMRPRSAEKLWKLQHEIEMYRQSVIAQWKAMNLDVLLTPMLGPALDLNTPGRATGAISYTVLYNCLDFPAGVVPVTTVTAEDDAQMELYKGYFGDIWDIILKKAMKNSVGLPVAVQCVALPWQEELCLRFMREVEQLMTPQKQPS
Experimental: (§1) Rat brains were homogenized in 50 mM Tris-HCl (50 mM, pH 7.4), and were centrifuged sequentially at 800× g and 20,000× g; then, the supernatants were discharged, and rFAAH activity was tested in membrane preparations incubated with 10 µM [^14C]AEA at 37 °C for 15 min (pH = 9.0). The reaction was stopped with a 1:1 (v/v) mixture of chloroform/methanol and the release of [^14C]ethanolamine in the aqueous phase was measured as reported. Purified human FAAH was assayed in the same way as rFAAH.

[2] = molecular target: T2, hFAAH (Homo sapiens, UniProt O00519); test: FAAH activity assay, purified human FAAH, [14C]AEA hydrolysis; type: biochemical
T2 construct: purchased Cayman Chemical Company
T2 sequence (O00519 1-579): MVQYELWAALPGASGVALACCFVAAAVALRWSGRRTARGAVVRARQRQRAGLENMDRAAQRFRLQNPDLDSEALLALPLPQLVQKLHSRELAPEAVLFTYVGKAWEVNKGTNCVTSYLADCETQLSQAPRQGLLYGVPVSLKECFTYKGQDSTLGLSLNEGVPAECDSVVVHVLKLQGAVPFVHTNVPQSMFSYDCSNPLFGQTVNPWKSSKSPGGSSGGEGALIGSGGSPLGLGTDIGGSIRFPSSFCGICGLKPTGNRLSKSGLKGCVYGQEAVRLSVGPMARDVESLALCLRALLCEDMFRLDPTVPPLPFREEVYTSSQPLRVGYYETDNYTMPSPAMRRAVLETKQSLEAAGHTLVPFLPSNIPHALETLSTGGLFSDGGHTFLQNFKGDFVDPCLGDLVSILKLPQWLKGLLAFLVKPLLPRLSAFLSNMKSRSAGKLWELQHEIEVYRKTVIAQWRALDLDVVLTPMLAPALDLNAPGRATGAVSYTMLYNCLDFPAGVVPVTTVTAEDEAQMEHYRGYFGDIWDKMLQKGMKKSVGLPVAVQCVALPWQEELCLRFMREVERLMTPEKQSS
Experimental: as §1

[3] = test system: TRPA1 channels; set-up: method as in PMID 21726418; settings: read-out: EC50, agonist of TRPA1 channels; cited from earlier work
[4] = test system: FAAH; set-up: method as in PMID 21392988; settings: non-covalent inhibitor co-crystallized in 3QK5; read-out: half-maximal inhibitory concentration (IC50); cited from earlier work
[5] = rat brain membranes, 10 µM [14C]AEA, 37 °C, 15 min, pH 9.0, dose-response 0–100 µM, read-out: IC50 Towards rFAAH
[6] = purified human FAAH, 10 µM [14C]AEA, 37 °C, 15 min, pH 9.0, dose-response 0–100 µM, read-out: IC50 Towards hFAAH

Structure (SMILES)	% In Vitro Inhibition (At 100 µm) [1] [%]	IC50 [1, 5] [µM]	IC50 [2, 6] [µM]	also measured
C=C1CC/C=C(\C)CC[C@@H]2[C@@H]1CC2(C)C [BCP, β-caryophyllene]	18	> 100	> 100	–
CCCCCc1cc(O)c2c(c1)OC(C)(CCC=C(C)C)C=C2 (stereo not shown) [CBC, cannabichromene]	51	~100	> 100	EC50 [3]: 0.09 µM
C=C(C)[C@@H]1CCC(C)=C[C@H]1c1c(O)cc(CCCCC)cc1O [CBD, cannabidiol, reference compound]	–	–	> 100	–
CCCCCc1cc(O)c(C/C=C(\C)CCC=C(C)C)c(O)c1 [CBG, cannabigerol]	53	~100	> 100	–
CCCCCc1cc(O)c2c(c1)OC(C)(C)c1ccc(C)cc1-2 [CBN, cannabinol]	65	–	–	IC50 [1]: 60 ± 10 µM; IC50 [2]: ~100 µM
Cc1c([C@H]2CCCN(c3nccc(-c4cc5ccccc5s4)n3)C2)c2cccnc2n1CC#N [QK5]	–	–	–	IC50 [4]: 0.018 µM
CCCc1cc(O)c2c(c1)OC(C)(C)[C@@H]1CCC(C)=C[C@@H]21 [THCV, Δ^9-tetrahydrocannabivarin]	30	–	–	IC50 [1]: > 100 µM; IC50 [2]: > 100 µM
NC(=O)c1cccc(-c2cccc(OC(=O)NC3CCCCC3)c2)c1 [URB597, reference compound]	–	–	–	inhibition at 10 µM ([2]; read-out: Inhibition of hFAAH activity compared to controls): > 99.5%
